Experimental data from patent EP4737449A1 (Changchun Genescience Pharmaceutical Co., Ltd., priority 2023, dated 2025).
Where two headings read alike, the source gives them in different places.

Experiments:
[1] = Associated plasma PK in the LU5269 xenograft study; format: in vivo, NOD/SCID mice; details: mouse, PO, QD*21, plasma after the last administration
Protocol: At the endpoint of the experiment, plasma samples from groups G2-G6 were collected: plasma was collected from the first 3 mice in each group at 0 h, 1 h, 2 h, and 4 h after the last administration; plasma was collected from the last 3 mice in each group at 0.5 h, 6 h, 9 h, and 24 h after the last administration.
Table 12 Route, dose and regimen of administration in the subcutaneous xenograft model

[2] = Pharmacokinetic study in beagles; format: in vivo; details: dog, plasma; for bioavailability: IV 1mpk/PO 2mpk
Protocol: On the day of administration, the test sample was prepared using a 5%DMSO+5%Solutol+90%Saline vehicle formula, and the drug solution was prepared and kept ready for use.
The IV group received a dose of 1 mg/kg, and the PO group received a dose of 2 mg/kg. The animals were fasted overnight before administration.
The animals were weighed before administration, and the dose was calculated based on the body weight. The drug was administered once via IV and PO on the day of administration. After administration, blood was collected from an appropriate vein at 0.083 h, 0.25 h, 0.5 h, 1.0 h, 2.0 h, 4.0 h, 6.0 h, 8.0 h and 24.0 h, about 1 mL each time, placed in EDTA-K2 anticoagulation blood collection tubes, centrifuged at 4000 rpm for 10 min (4°C), and plasma was separated within 1 h. The plasma was drawn into labeled EP tubes (the label should at least indicate the subject code, animal number, collection time, collection date, etc.), and stored at -80°C for testing. The process from blood collection to centrifugation was carried out in ice bath. The animals were allowed to eat and have free access to water 3 h after administration. The concentration of the test sample in beagle plasma was detected using validated LC-MS/MS.

[3] = system: NUGC-3 human gastric cancer subcutaneous xenograft; experiment: Efficacy in NUGC-3 human gastric cancer subcutaneous xenograft model; format: in vivo, BALB/c Nude mouse; details: PO, 19 days
Protocol: NUGC-3 cells were cultured in RPMI-1640 medium containing 10% FBS. NUGC-3 cells in the exponential growth phase were collected, the total amount of cells required was calculated, the cells were re-suspended in PBS to a suitable concentration and then an equal volume of Matrigel was added for subcutaneous tumor seeding in BALB/c Nude mice. The concentration of the cell suspension was 5x10^6/0.1 mL.
0.1 mL (5×10^6 NUGC-3 cells) of cell suspension (PBS : Matrigel = 1:1, V/V) was seeded subcutaneously on the right back of each mouse. When the tumor grew to have an average volume of 128.4 mm^3, group-based drug administration began (vehicle: 0.2% HPC + 0.5% Tween 80), and the average tumor volume of the enrolled animals was 146.1 mm^3.
Table 11 Route, dose and regimen of administration in the subcutaneous xenograft model

[4] = Pharmacokinetic study in SD rats; format: in vivo; details: rat, plasma; for AUC(0-t) at 24 h / AUC(0-t): read-out: AUC0-24h
Protocol: On the day of administration, the test sample was prepared using a 2% HPC + 5% solutol aqueous solution vehicle formula, and the drug solution was prepared and kept ready for use.
The PO group was given the designated dose. The animals in the oral administration group were fasted overnight, allowed free access to water, and returned to food 3 hours after administration.
The animals were weighed before administration, and the dose was calculated based on the body weight. The drug was administered once via PO on the day of administration. After administration in the PO group, blood was collected from the jugular vein at 0.083 h, 0.25 h, 0.5 h, 1.0 h, 2.0 h, 4.0 h, 6.0 h, 8.0 h and 24 h, about 200 µL each time, placed in EDTA-K2 anticoagulation blood collection tubes, centrifuged at 4000 rpm for 10 min (4°C), and plasma was separated within 1 h. The plasma was drawn into labeled EP tubes (the label should at least indicate the subject code, animal number, collection time, collection date, etc.), and stored at -80°C for testing. The process from blood collection to centrifugation was carried out in ice bath. The concentration of the test sample in SD rat plasma was detected using validated LC-MS/MS.

Compound: CN1CC[C@@H](Nc2cccc3c(CC(F)(F)F)c(C#CCNC(=O)c4cnn(C(C)(C)C)c4N)nn23)[C@@H](F)C1 [Compound 047]
- AUC(0-t) ([1]; 50 mg/kg, 50mpk): 11700 ng·h/mL
- Cmax ([1]; 50 mg/kg, 50mpk): 1690 ng/mL
- half-life ([1]; 50 mg/kg, 50mpk): 2.2 h
- AUC(0-t) ([1]; 75 mg/kg, 75mpk): 24400 ng·h/mL
- Cmax ([1]; 75 mg/kg, 75mpk): 2590 ng/mL
- AUC(0-t) ([1]; 100 mg/kg, 100 mpk): 39400 ng·h/mL
- Cmax ([1]; 100 mg/kg, 100 mpk): 4440 ng/mL
- half-life ([1]; 100 mg/kg, 100 mpk): 1.9 h
- AUC(0-t) ([1]; 150 mg/kg, 150mpk): 68000 ng·h/mL
- Cmax ([1]; 150 mg/kg, 150mpk): 5550 ng/mL
- half-life ([1]; 150 mg/kg, 150mpk): 2.6 h
- AUC(0-t) ([2]; 1 mg/kg, IV 1mpk): 1400 ng·h/mL
- C0 ([2]; 1 mg/kg, IV 1mpk): 414 ng/mL
- Vd ([2]; 1 mg/kg, IV 1mpk): 3.8 L/kg
- clearance ([2]; 1 mg/kg, IV 1mpk): 12.8 mL/min/kg
- half-life ([2]; 1 mg/kg, IV 1mpk): 5.6 h
- AUC(0-t) ([2]; 2 mg/kg, PO 2mpk): 1640 ng·h/mL
- Cmax ([2]; 2 mg/kg, PO 2mpk): 199 ng/mL
- Tmax ([2]; 2 mg/kg, PO 2mpk): 2 h
- half-life ([2]; 2 mg/kg, PO 2mpk): 14 h
- bioavailability [2]: 42%
- tumor volume inhibition rate TGI ([3]; 50 mpk, BID): 68%
- tumor volume inhibition rate TGI ([3]; 100 mpk, BID): 93%
- tumor volume inhibition rate TGI ([3]; 150 mpk, BID): 103%
- tumor volume inhibition rate TGI ([3]; 150 mpk, QD): 91%
- Cmax ([4]; 50 mg/kg, po 50 mpk): 13200 ng/mL
- AUC(0-t) at 24 h ([4]; 50 mg/kg, po 50 mpk): 113000 ng·h/mL
- Cmax ([4]; 300 mg/kg, po 300 mpk): 32800 ng/mL
- AUC(0-t) at 24 h ([4]; 300 mg/kg, po 300 mpk): 431000 ng·h/mL

Compound: CNC(=O)c1ccc(NCC#Cc2cc3c(N[C@@H]4CCN(C)C[C@@H]4F)cccc3n2CC(F)(F)F)c(OC)c1 [Control compound, reference compound]
- AUC(0-t) ([1]; NOD/SCID, 100 mg/kg, 100 mpk): 413000 ng·h/mL
- Cmax ([1]; NOD/SCID, 100 mg/kg, 100 mpk): 24300 ng/mL
- AUC(0-t) ([2]; beagle, 1 mg/kg, IV 1mpk): 849 ng·h/mL
- C0 ([2]; beagle, 1 mg/kg, IV 1mpk): 277 ng/mL
- Vd ([2]; beagle, 1 mg/kg, IV 1mpk): 6.7 L/kg
- clearance ([2]; beagle, 1 mg/kg, IV 1mpk): 20.4 mL/min/kg
- half-life ([2]; beagle, 1 mg/kg, IV 1mpk): 4.8 h
- bioavailability ([2]; beagle, 2 mg/kg): 82%
- AUC(0-t) ([2]; beagle, 2 mg/kg, PO 2mpk): 1490 ng·h/mL
- Cmax ([2]; beagle, 2 mg/kg, PO 2mpk): 101 ng/mL
- Tmax ([2]; beagle, 2 mg/kg, PO 2mpk): 4.7 h
- half-life ([2]; beagle, 2 mg/kg, PO 2mpk): 6.7 h
- tumor volume inhibition rate TGI ([3]; 50 mpk, QD): 52%
- tumor volume inhibition rate TGI ([3]; 100 mpk, QD): 77%
- Cmax ([4]; 50 mg/kg, po 50 mpk): 11500 ng/mL
- AUC(0-t) ([4]; 50 mg/kg, po 50 mpk): 148000 ng·h/mL
- Cmax ([4]; 300 mg/kg, po 300 mpk): 25400 ng/mL
- AUC(0-t) ([4]; 300 mg/kg, po 300 mpk): 416000 ng·h/mL
